# How the values were obtained:
# Experiment in all cases: relative viability (nuclei count vs DMSO), 5 days (fraction); higher = more cells survive
# Vemurafenib + Pictilisib = compound: CCCS(=O)(=O)Nc1ccc(F)c(C(=O)c2c[nH]c3ncc(-c4ccc(Cl)cc4)cc23)c1F [Vemurafenib] + CS(=O)(=O)N1CCN(Cc2cc3nc(-c4cccc5[nH]ncc45)nc(N4CCOCC4)c3s2)CC1 [Pictilisib] (partner 1 µM)
# Outline: (§1)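 For relative viability, nuclei counts in treated wells were divided by those in vehicle wells. Lung cancer cell lines had been pin-tool dosed in 1536-well plates the day after seeding and cultured for 5 days, then fixed and stained in one step (final 0.05% Triton X-100, 1% formaldehyde, 1 ug/ml Hoechst) and imaged at 4×. Doses were one drug alone or a fixed anchor-drug dose plus five library-drug doses (not always all listed) in √10 steps, and values are duplicate-plate medians.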
# Vemurafenib + Pemetrexed = compound: CCCS(=O)(=O)Nc1ccc(F)c(C(=O)c2c[nH]c3ncc(-c4ccc(Cl)cc4)cc23)c1F [Vemurafenib] + Nc1nc2[nH]cc(CCc3ccc(C(=O)N[C@@H](CCC(=O)O)C(=O)O)cc3)c2c(=O)[nH]1 [Pemetrexed] (partner 0.2 µM)
# Outline: as §1
# OSI-027 + Luminespib = compound: COc1cccc2cc(-c3nc([C@H]4CC[C@H](C(=O)O)CC4)n4ncnc(N)c34)[nH]c12 [OSI-027] + CCNC(=O)c1noc(-c2cc(C(C)C)c(O)cc2O)c1-c1ccc(CN2CCOCC2)cc1 [Luminespib] (partner 0.01 µM)
# Outline: as §1
# Alpelisib + Foretinib = compound: Cc1nc(NC(=O)N2CCC[C@H]2C(N)=O)sc1-c1ccnc(C(C)(C)C(F)(F)F)c1 [Alpelisib] + COc1cc2c(Oc3ccc(NC(=O)C4(C(=O)Nc5ccc(F)cc5)CC4)cc3F)ccnc2cc1OCCCN1CCOCC1 [Foretinib] (partner 0.25 µM)
# Outline: as §1
Cell Line,relative viability (Vemurafenib + Pictilisib; first compound 0.03162 µM),relative viability (Vemurafenib + Pictilisib; first compound 0.1 µM),relative viability (Vemurafenib + Pictilisib; first compound 0.3162 µM),relative viability (Vemurafenib + Pictilisib; first compound 1 µM),relative viability (Vemurafenib + Pemetrexed; first compound 0.03162 µM),relative viability (Vemurafenib + Pemetrexed; first compound 0.1 µM),relative viability (Vemurafenib + Pemetrexed; first compound 0.3162 µM),relative viability (Vemurafenib + Pemetrexed; first compound 1 µM),relative viability (OSI-027 + Luminespib; first compound 0.01 µM),relative viability (OSI-027 + Luminespib; first compound 0.03162 µM),relative viability (OSI-027 + Luminespib; first compound 0.1 µM),relative viability (OSI-027 + Luminespib; first compound 0.3162 µM),relative viability (OSI-027 + Luminespib; first compound 1 µM),relative viability (Alpelisib + Foretinib; first compound 0.04 µM),relative viability (Alpelisib + Foretinib; first compound 0.1265 µM),relative viability (Alpelisib + Foretinib; first compound 0.4 µM),relative viability (Alpelisib + Foretinib; first compound 1.265 µM),relative viability (Alpelisib + Foretinib; first compound 4 µM)
EMC-BAC-2,0.46,0.474,0.454,0.544,0.447,0.475,0.358,0.437,1.24,1.17,0.95,0.864,0.379,0.973,0.867,1.01,0.689,0.592
NCI-H460,0.332,0.438,0.271,0.296,0.0604,0.058,0.065,0.0749,0.0335,0.032,0.0283,0.0249,0.0266,0.998,1.02,1.08,0.929,0.795
NCI-H441,0.44,0.402,0.544,0.35,0.23,0.295,0.249,0.27,0.367,0.393,0.307,0.235,0.236,0.891,0.844,0.786,0.724,0.566
NCI-H661,0.347,0.351,0.292,0.433,1.01,0.929,0.978,0.929,0.894,0.977,0.846,0.917,0.409,1.02,1.05,1.08,1.02,0.92
NCI-H1651,0.523,0.6,0.665,0.527,0.555,0.626,0.508,0.579,0.866,0.691,1.08,0.79,0.725,0.683,0.853,0.791,0.571,0.741
NCI-H1355,0.419,0.426,0.377,0.395,1.03,0.961,1.02,1.04,0.604,0.582,0.589,0.416,0.406,0.951,0.926,1.04,0.851,0.77
NCI-H1793,0.442,,0.477,0.379,0.797,0.602,0.749,1.12,0.162,0.188,0.168,0.132,0.168,0.733,0.666,0.77,0.402,0.42
NCI-H1666,0.387,,0.482,0.331,0.805,0.847,0.913,0.843,1.01,1,0.996,0.891,0.915,1,1.02,1.05,0.801,0.74
NCI-H838,0.401,0.445,,0.626,0.252,0.235,0.338,0.272,0.281,0.338,0.336,0.192,0.195,0.94,0.961,1.01,0.892,0.871
NCI-H1975,0.279,0.278,0.232,0.332,0.285,0.284,0.262,0.299,0.232,0.195,0.157,0.121,0.187,0.915,0.872,0.883,0.691,0.57
A-427,0.751,0.754,0.564,0.738,0.866,0.918,,1.1,0.92,0.891,0.811,0.61,0.505,1.19,0.833,1.11,0.831,0.992
SK-LU-1,0.545,0.567,,0.532,0.928,0.891,0.861,0.974,0.188,0.198,0.173,0.181,0.152,0.831,0.796,0.854,0.453,0.681
PC-3 [JPC-3],0.649,,0.857,0.82,,,0.92,1.25,0.839,0.553,0.661,0.598,0.332,1.08,1,1.07,0.987,0.971
ChaGo-K-1,0.657,0.587,,0.625,0.247,0.267,0.261,0.274,0.574,0.648,0.586,0.355,0.31,0.881,0.91,1.01,0.807,0.8
NCI-H2023,0.218,0.222,0.302,0.225,0.229,0.2,0.207,0.278,0.812,0.59,0.646,0.709,0.27,0.82,0.844,0.667,0.605,0.527
LXF-289,0.711,0.724,0.698,0.758,0.871,0.868,0.903,0.635,0.544,0.612,0.471,0.458,0.258,0.951,1,1.08,0.909,0.764
LOU-NH91,0.535,0.459,,0.525,0.372,0.464,0.337,0.382,0.312,0.308,0.333,0.306,0.315,0.933,0.853,0.81,0.738,0.754
PC-14,0.584,,0.805,0.696,0.147,,0.126,0.134,0.146,0.108,0.126,0.17,0.17,0.914,1.01,0.977,0.807,0.832

# — the supplement of paper PMC10307832
